From US20080280759A1, “6-(2-Fluoro-4-Alkoxyphenyl) Triazolopyrimidines, Their Preparation, Their Use For Controlling Harmful Fungi, and Compositions Comprising Them” (priority 2003, published 2008)

Tested on: Botrytis cinerea
Assay: Activity against gray mold on bell pepper leaves caused by Botrytis cinerea, protective application
Assay type: in vivo
Conditions: 250 ppm, sprayed the day before inoculation, assessed visually after 5 days, untreated plants 80% infected
Procedure: The active compounds were formulated separately as a stock solution with 0.25% by weight in acetone or DMSO. 1% by weight of the emulsifier Wettol EM 31 (wetting agent having emulsifying and dispersing action based on ethoxylated alkylphenols) was added to this solution. The stock solutions of the active compounds were diluted with water to the stated concentration. For examples 1 and 2, the active compounds were prepared as a stock solution with 25 mg of active compound which was made up to 10 ml using a mixture of acetone and/or DMSO and the emulsifier Uniperol® EL (wetting agent having emulsifying and dispersing action based on the ethoxylated alkylphenols) in a volume ratio of solvent/emulsifier of 99 to 1. The mixture was then made up with water to 100 ml. This stock solution was diluted with the solvent/emulsifier/water mixture described to the concentration of active compounds stated below. Bell pepper seedlings of the cultivar “Neusiedler Ideal Elite” were, after 2 to 3 leaves were well developed, sprayed to runoff point with an aqueous suspension having the concentration of active compounds stated below. The next day, the treated plants were inoculated with a spore suspension of Botrytis cinerea which contained 1.7×10^6 spores/ml in a 2% aqueous biomalt solution. The test plants were then placed in a dark climatized chamber at 22 to 24° C. and high atmospheric humidity. After 5 days, the extent of the fungal infection on the leaves could be determined visually in %.

Molecule: 5-methoxy-6-(2,6-difluoro-4-methoxyphenyl)-7-(4-methyl-piperidinyl)-1,2,4-triazolo[1,5a]pyrimidine [Compound I-3]
- fungal infection on the leaves: no infection

Molecule: COc1cc(F)c(-c2c(C#N)nc3ncnn3c2N2CCC(C)CC2)c(F)c1 [Compound I-1, 5-cyano-6-(2,6-difluoro-4-methoxyphenyl)-7-(4-methyl-piperidinyl)-1,2,4-triazolo[1,5a]pyrimidine]
- fungal infection on the leaves: no infection

Molecule: COc1cc(F)c(-c2c(C)nc3ncnn3c2N2CCC(C)CC2)c(F)c1 [Compound I-2, 5-methyl-6-(2,6-difluoro-4-methoxyphenyl)-7-(4-methyl-piperidinyl)-1,2,4-triazolo[1,5a]pyrimidine]
- fungal infection on the leaves: no infection
